According to PubChem BioAssay (NCI):
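How tested: cells in 96-well plates exposed to compound for 48 hours at five concentrations. Here, GI50 denotes the concentration required for 50% inhibition of growth. TGI: concentration producing complete growth inhibition.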

Key:
Assay in all cases: NCI-60 cell line screen, 48 h
MDA-MB-231 breast = tested on: MDA-MB-231 breast
HCT-15 colon = tested on: HCT-15 colon
HCC-2998 colon = tested on: HCC-2998 colon
MALME-3M melanoma = tested on: MALME-3M melanoma
HCT-116 colon = tested on: HCT-116 colon
SR leukemia = tested on: SR leukemia
UACC-257 melanoma = tested on: UACC-257 melanoma
BT-549 breast = tested on: BT-549 breast
NCI-H522 lung = tested on: NCI-H522 lung

| Compound | GI50 (MDA-MB-231 breast) [µM] | TGI (MDA-MB-231 breast) [µM] | GI50 (HCT-15 colon) [µM] | TGI (HCT-15 colon) [µM] | GI50 (HCC-2998 colon) [µM] | TGI (HCC-2998 colon) [µM] | TGI (MALME-3M melanoma) [µM] | TGI (HCT-116 colon) [µM] | TGI (SR leukemia) [µM] | TGI (UACC-257 melanoma) [µM] | TGI (BT-549 breast) [µM] | TGI (NCI-H522 lung) [µM] |
| --- | --- | --- | --- | --- | --- | --- | --- | --- | --- | --- | --- | --- |
| CN(C)c1ccc(/C=C/c2sc3ccc4ccccc4c3[n+]2C)cc1 | 0.526 | 2.62 | 0.692 | > 31.5 | 0.365 | 1.57 | – | – | – | – | – | – |
| OC1C(O)C(O)C(O)C(O)C1O (configuration not stated) | – | > 1000 | – | > 1000 | – | > 1000 | > 1000 | > 1000 | > 1000 | > 1000 | > 1000 | – |
| CC(=O)Oc1ccn2nc(C)c(Br)c2c1Br | – | 54.3 | – | 33.6 | – | 49.9 | 40.6 | > 58.7 | > 100 | 32.2 | 60.2 | 36.8 |
| Clc1ccc(OCc2nnc3sc(-c4ccc(-c5ccc(Cl)cc5Cl)o4)nn23)c(Cl)c1 | – | 33.3 | – | 49.9 | – | 36.6 | 39.4 | 31.4 | 25.5 | 38.2 | 50.6 | 34.6 |
| Oc1cc(Cl)cc2cc(Br)cnc12 | – | > 100 | – | > 100 | – | > 73.9 | 21 | > 100 | > 20.1 | > 23.9 | > 100 | > 69.9 |
| c1ccc2c(c1)CCc1c-2n(CCN2CCCCC2)c2ccccc12 | – | 28 | – | 22.9 | – | 26.4 | 40.3 | 25.5 | 32.3 | 32.5 | 42.1 | 27.1 |
| Oc1[nH]c2ccccc2c1N=NC1=NCCCCN1 | – | > 100 | – | > 100 | – | > 100 | > 100 | > 100 | > 100 | > 100 | > 100 | > 100 |
| C#CC(O)/C=C/CCCCCCC#CC/C=C\CC#CCCCCCC/C=C/C(O)C#C (configuration not stated) | – | 8.9 | – | 6.94 | – | 3.39 | – | 4.02 | 18 | 8.57 | 9.61 | – |
| OCCCSc1ccccc1SCCCO | – | > 100 | – | > 100 | – | > 100 | – | > 100 | > 100 | > 100 | > 100 | > 100 |
| CC(C)(C)c1cc(-c2ccc(-c3cc(C(C)(C)C)c(O)c(C(C)(C)C)c3)cc2)cc(C(C)(C)C)c1O | – | > 100 | – | > 100 | – | – | > 100 | > 100 | > 100 | > 100 | > 100 | > 100 |
| COc1cc(/C=C2\N=C(c3ccccc3)N(C3Nc4cc5c(cc4S3)NC(N3C(=O)/C(=C/c4cc(OC)c(OC)c(OC)c4)N=C3c3ccccc3)S5)C2=O)cc(OC)c1OC (configuration not stated) | – | > 100 | – | > 100 | – | > 100 | – | > 100 | > 100 | > 100 | > 100 | > 100 |
| Cc1ccc(C(=O)CC(Cl)=C(Cl)Cl)cc1 | – | > 100 | – | > 100 | – | – | > 100 | > 100 | 55.6 | > 100 | > 100 | > 100 |
| O=C1Oc2ccccc2C(=O)/C1=C/N1C(=O)/C(=C/c2ccc([N+](=O)[O-])cc2)SC1=S | – | 57.2 | – | 61.7 | – | 42.2 | > 100 | 50.2 | > 100 | 90.7 | 31.2 | 70.1 |
| Cc1nc2c(nc1C)-c1c(c3c(n1Cc1ccccc1)C(=O)CCC3)C(=O)C2=O | – | > 100 | – | > 100 | – | 5.49 | 14.2 | > 100 | 6.36 | 48.3 | 5.84 | 7.28 |
| NC(=O)c1n[nH]n(-c2ccccc2)c1=O | – | > 100 | – | > 100 | – | > 100 | > 100 | > 100 | – | > 100 | > 100 | > 100 |
| FC(F)(F)c1ccc2c(c1)nc(Cc1ccccc1)n2C[C@@H]1CCCN2CCCCC12 (some centres not stated) | – | 27.8 | – | 30.6 | – | 10.6 | 31.1 | 27.9 | > 100 | 28.9 | 28.7 | 31.6 |
| Cn1c(-c2csc(-c3ccc(Cl)cc3)n2)n[nH]c1=S | – | 69.4 | – | > 100 | – | > 100 | 69.6 | 40.9 | > 100 | > 100 | 55.8 | 41 |
| O=S(=O)(O)CCS | – | > 100 | – | > 100 | – | > 100 | > 100 | > 100 | > 100 | > 100 | – | > 100 |
| Cn1c(N2CCCC2)c(C=O)c(=O)n(C)c1=O | – | > 100 | – | > 100 | – | > 100 | > 100 | > 100 | – | > 100 | > 100 | > 100 |
| O=c1nc2n(cc1/C=C\Br)C1CC(O)C(CO2)O1 (configuration not stated) | – | > 100 | – | > 100 | – | > 100 | > 100 | > 100 | – | > 100 | > 100 | – |
| O=C1CC(Br)c2c(Cl)sc(Cl)c21 (configuration not stated) | – | 22.7 | – | 28.1 | – | 24.4 | 25.6 | 16.9 | 32.2 | 15 | 61.4 | 37.3 |
| Cc1cccc2sc(NC(=O)c3cc([N+](=O)[O-])ccc3Cl)nc12 | – | > 100 | – | > 29.1 | – | 40.2 | 30.3 | 12 | > 100 | > 100 | 9.5 | 4.1 |
| CCC(=O)OCc1ccc2oc(=O)c(C(=O)Oc3cncc(Cl)c3)cc2c1 | – | > 100 | – | > 100 | – | > 100 | > 100 | > 100 | > 100 | > 100 | > 100 | > 100 |
